Assay results reported in patent US11083709B2, “Compounds, compositions, and methods of increasing CFTR activity” (Proteostasis Therapeutics, Inc., priority 2015, dated 2021).

How the values were obtained:
[1] = target: T1, CFTR in G542X/F508del HBEs (Homo sapiens, UniProt P13569, DEL508-508); assay: Ussing measurements, G542X/F508del HBEs; assay type: cell-based; details: genotype G542X/F508del
T1 construct: endogenous in cells; host or cells: primary lung epithelial cells (hBEs), genotype G542X/F508del
Method: As discussed above, Ussing measurements were used to measure CFTR activity. In this method, primary lung epithelial cells (hBEs) with a Cystic fibrosis causing class I mutation were differentiated for a minimum of 4 weeks in an air-liquid interface on SnapWell™ filter plates prior to the Ussing measurements. Cells were apically mucus-washed for 30 minutes prior to treatment with compounds. The basolateral media was removed and replaced with media containing the compound of interest diluted to its final concentration from DMSO or aqueous stocks. Treated cells were incubated at 37° C. and 5% CO2 for 24 hours. […] The short-circuit current was measured in voltage clamp-mode (Vhold=0 mV), and the entire assay was conducted at a temperature of 36° C.-36.5° C. Once the voltages stabilized, the chambers were clamped, and data were recorded by pulse readings every 5 seconds. Following baseline current stabilization, the following additions were applied and the changes in current and resistance of the cells were monitored: • 1. […]
The forskolin-sensitive current and inhibitable current (that potentiated current that was blocked by CFTRinh-172) were measured as the specific activity of the ΔF508-CFTR channel, and increase in response to compound in this activity over that observed in vehicle-treated samples were identified as the correction of ΔF508-CFTR function imparted by the compound tested. […]

[2] = tested on: CFTR in G551D/F508del HBEs; assay: Ussing measurements, G551D/F508del HBEs; assay type: cell-based, human; details: genotype G551D/F508del
Method: As discussed above, Ussing measurements was used to measure CFTR activity. In this method, primary lung epithelial cells (hBEs) with a Cystic Fibrosis-causing class III mutation were differentiated for a minimum of 4 weeks in an air-liquid interface on SnapWell™ filter plates prior to the Ussing measurements. Cells were apically mucus-washed for 30 minutes prior to treatment with compounds. The basolateral media was removed and replaced with media containing the compound of interest diluted to its final concentration from DMSO stocks. Treated cells were incubated at 37° C. and 5% CO2 for 24 hours. At the end of the treatment period, the cells on filters were transferred to the Ussing chamber and equilibrated for 30 minutes. The short-circuit current was measured in voltage clamp-mode (Vhold=0 mV), and the entire assay was conducted at a temperature of 36° C.-36.5° C. Once the voltages stabilized, the chambers were clamped, and data was recorded by pulse readings every 5 seconds. Following baseline current stabilization, the following additions were applied and the changes in current and resistance of the cells was monitored: • 1. Benzamil to the apical chamber to inhibit ENaC sodium channel. • 2. Forskolin to both chambers to activate ΔF508-CFTR by phosphorylation. • 3. Ivacaftor or Genistein to the apical chamber to potentiate ΔF508-CFTR channel opening. • 4. CFTRinh-172 to the apical chamber to inhibit ΔF508-CFTR Cl-conductance.
The forskolin-sensitive current and inhibitable current (that potentiated current that is blocked by CFTRinh-172) were measured as the specific activity of the ΔF508-CFTR channel, and increase in response to compound in this activity over that observed in vehicle-treated samples were identified as the correction of ΔF508-CFTR function imparted by the compound tested.
The results are shown below in Tables 5 and 6. Compound A is 10 uM and VX-809 is 3 uM and ivacaftor is 1 uM.

[3] = tested on: CFTR, genotype G542X/G542X; assay: CFTR activity by mutation type, G542X/G542X (Table 7); assay type: cell-based, human
[4] = tested on: CFTR, genotype 3849 + 10kb C > T/N1303K; assay: CFTR activity by mutation type, 3849 + 10kb C > T/N1303K (Table 7); assay type: cell-based, human
[5] = compound A 10uM + ivacaftor 1uM, relative activity of 100% = ivacaftor
[6] = compound A 10uM, relative activity of 100% = ivacaftor (1uM)

T1 sequence (P13569 with tags, fused parts or gaps DEL508-508): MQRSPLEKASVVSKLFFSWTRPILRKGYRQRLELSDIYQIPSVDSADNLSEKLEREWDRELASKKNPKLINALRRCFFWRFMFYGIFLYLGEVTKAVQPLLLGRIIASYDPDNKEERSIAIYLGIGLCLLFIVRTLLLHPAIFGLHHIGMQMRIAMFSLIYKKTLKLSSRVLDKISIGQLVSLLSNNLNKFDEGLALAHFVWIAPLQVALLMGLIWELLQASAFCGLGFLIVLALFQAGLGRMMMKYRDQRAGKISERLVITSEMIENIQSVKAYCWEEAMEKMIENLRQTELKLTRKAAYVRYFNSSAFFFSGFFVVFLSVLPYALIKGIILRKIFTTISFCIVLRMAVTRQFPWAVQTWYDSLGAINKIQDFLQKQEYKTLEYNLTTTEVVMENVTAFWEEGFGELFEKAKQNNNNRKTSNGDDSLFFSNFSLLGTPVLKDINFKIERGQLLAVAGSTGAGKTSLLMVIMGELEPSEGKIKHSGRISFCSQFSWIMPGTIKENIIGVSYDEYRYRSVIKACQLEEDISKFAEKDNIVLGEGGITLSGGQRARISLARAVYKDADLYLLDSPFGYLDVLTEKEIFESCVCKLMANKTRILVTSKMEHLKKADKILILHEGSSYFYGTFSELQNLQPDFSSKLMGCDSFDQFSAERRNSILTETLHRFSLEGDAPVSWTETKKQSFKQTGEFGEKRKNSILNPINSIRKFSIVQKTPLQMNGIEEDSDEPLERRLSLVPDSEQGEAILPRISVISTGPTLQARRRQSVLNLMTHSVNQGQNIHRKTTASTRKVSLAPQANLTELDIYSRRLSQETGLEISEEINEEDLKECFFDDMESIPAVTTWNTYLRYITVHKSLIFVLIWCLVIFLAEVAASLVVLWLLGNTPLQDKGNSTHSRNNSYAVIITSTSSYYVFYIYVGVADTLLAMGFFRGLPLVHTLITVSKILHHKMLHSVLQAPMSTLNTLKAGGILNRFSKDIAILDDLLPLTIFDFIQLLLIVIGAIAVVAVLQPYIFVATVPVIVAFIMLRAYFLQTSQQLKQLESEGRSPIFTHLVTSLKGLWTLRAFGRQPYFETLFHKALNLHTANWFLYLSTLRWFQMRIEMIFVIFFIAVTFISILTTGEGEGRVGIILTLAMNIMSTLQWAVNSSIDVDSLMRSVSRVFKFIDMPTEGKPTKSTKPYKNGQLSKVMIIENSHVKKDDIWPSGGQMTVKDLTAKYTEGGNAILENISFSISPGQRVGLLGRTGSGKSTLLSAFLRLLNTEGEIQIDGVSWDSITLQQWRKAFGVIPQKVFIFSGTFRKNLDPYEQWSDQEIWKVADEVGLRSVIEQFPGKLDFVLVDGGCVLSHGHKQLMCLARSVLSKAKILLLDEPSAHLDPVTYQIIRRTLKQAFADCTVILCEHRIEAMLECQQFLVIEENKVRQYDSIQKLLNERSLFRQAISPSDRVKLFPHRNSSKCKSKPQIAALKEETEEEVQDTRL

For `C[C@@H](O)c1nnc([C@H]2C[C@H](NC(=O)c3cc(-c4ccccc4)no3)C2)o1` [Example 6, N-(trans-3-(5-((R)-1-hydroxyethyl)-1,3,4-oxadiazol-2-yl)cyclobutyl)-3-phenylisoxazole-5-carboxamide], the “Combination with ivacaftor and lumacaftor, activity” value ([1]; compound A 10uM + ivacaftor 1uM + lumacaftor 3 uM, relative activity of 100% = ivacaftor and lumacaftor) was “++++ (++++ indicates activity at 10uM of >150% of the indicated relative activity treatment)”, the “Stand Alone activity” value ([1]; compound A 10uM, relative activity of 100% = ivacaftor (1uM) and lumacaftor (3 uM)) was “+ (+ indicates activity at 10uM of 15% to <50% of the indicated relative activity treatment)” and the “Combination with ivacaftor, activity” value [2, 5] was “++++ (++++ indicates activity at 10uM of >150% of the indicated relative activity treatment)”. For the same compound, the “Stand Alone activity” value [2, 6] was “+ (+ indicates activity at 10uM of 15% to <50% of the indicated relative activity treatment)”, the “Combination with NB124, activity” value ([3]; compound A 10uM + NB124 250 ug/ml, relative activity of 100% = NB124) was “++++ (++++ indicates activity at 10uM of >150% of the indicated relative activity treatment)” and the “Stand Alone activity” value ([3]; compound A 10uM, relative activity of 100% = NB124 (250 ug/ml)) was “++ (++ indicates activity at 10uM of 50% to <100% of the indicated relative activity treatment)”. The “Combination with ivacaftor, activity” value [4, 5] was “+++ (+++ indicates activity at 10uM of 100% to <150% of the indicated relative activity treatment)” and the “Stand Alone activity” value [4, 6] was “++ (++ indicates activity at 10uM of 50% to <100% of the indicated relative activity treatment)”.
